Test results as given in patent US10947289B2, “Glyco-modified atrial natriuretic peptide” (priority 2013, dated 2021).

Biological target: T1, human GC-A (Homo sapiens, UniProt P16066)
T1 construct: expressed in transfected cells; host or cells: CHO cells
T1 sequence (P16066 33-1061): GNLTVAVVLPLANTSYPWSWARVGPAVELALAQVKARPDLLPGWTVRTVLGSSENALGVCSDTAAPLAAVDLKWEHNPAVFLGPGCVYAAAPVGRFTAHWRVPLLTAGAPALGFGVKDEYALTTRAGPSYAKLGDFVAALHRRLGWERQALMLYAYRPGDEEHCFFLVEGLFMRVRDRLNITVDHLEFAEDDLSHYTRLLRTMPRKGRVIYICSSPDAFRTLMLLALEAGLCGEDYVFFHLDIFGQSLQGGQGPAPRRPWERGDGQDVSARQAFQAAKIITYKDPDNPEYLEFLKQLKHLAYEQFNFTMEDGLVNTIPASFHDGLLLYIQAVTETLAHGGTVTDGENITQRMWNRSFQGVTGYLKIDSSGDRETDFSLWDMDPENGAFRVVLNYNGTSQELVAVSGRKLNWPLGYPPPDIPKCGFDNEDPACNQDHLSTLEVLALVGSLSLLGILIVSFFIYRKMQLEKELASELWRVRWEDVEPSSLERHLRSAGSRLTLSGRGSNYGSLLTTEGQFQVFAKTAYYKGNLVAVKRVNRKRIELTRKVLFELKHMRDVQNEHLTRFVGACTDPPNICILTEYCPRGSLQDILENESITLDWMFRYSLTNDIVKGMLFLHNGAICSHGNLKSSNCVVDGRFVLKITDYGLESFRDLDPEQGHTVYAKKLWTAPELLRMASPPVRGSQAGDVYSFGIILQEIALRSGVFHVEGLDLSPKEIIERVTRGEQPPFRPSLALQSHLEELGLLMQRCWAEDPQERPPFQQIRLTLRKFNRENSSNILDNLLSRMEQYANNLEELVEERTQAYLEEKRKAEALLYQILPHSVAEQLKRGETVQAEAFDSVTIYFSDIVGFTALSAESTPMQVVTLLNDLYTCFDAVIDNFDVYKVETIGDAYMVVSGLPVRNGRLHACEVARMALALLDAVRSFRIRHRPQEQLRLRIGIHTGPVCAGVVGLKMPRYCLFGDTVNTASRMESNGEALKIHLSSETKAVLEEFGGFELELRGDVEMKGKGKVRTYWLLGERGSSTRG
Experiment: cGMP elevating activity in CHO/human GC-A cells (Test Example 1)
Format: cell-based
Procedure: The cGMP elevating activity of each modified peptide prepared in Example 2 was measured by the following method:
CHO/human GC-A cells, which are CHO cells constitutively expressing human GC-A, were suspended at 2×10^5 cells/ml in α-MEM, 10% FBS, and 1% penicillin-streptomycin, inoculated at 20 μl/well (4×10^3 cells/well) onto a 384-well plate (Corning, 3826), and cultured overnight in a CO2 incubator. On the next day, the medium was removed from this plate, and then, 1.6 mM IBMX/KRB buffer was added thereto at 10 μl/well. The mixture was stirred on a plate shaker and then incubated at room temperature for 10 minutes. […] The mixture was stirred on a plate shaker and then incubated for 15 minutes in a CO2 incubator. Thereafter, a lysis buffer (50 mM phosphate buffer, pH 7.0, and 1% Triton X-100) was added thereto at 5 μl/well. The cells were lysed by stirring for 10 minutes on a plate shaker. Subsequently, the cGMP levels in the cell lysates were measured by use of a cGMP kit (manufactured by Cisbio Bioassays). Specifically, to a 384-well plate (Greiner, 784076), 5 μl/well of a diluent attached to the kit, 5 μl/well of the cell lysate, 5 μl/well of cGMP-d2, and 5 μl/well of anti cGMP-Cryptate were added. The mixture was stirred on a plate shaker and then incubated overnight at 4° C. in the dark, followed by the measurement of homogeneous time-resolved fluorescence using RubyStar (manufactured by BMG LABTECH JAPAN Ltd.). The activity value (T/C) of the test substance at each concentration was calculated when the activity value of a well supplemented with only a solvent was defined as 0 and the activity value of a well supplemented with 1 nM ANP was defined as 1.

Compound: CC[C@H](C)[C@@H]1NC(=O)[C@H](CCCNC(=N)N)NC(=O)[C@H](CC(=O)O)NC(=O)[C@H](CCSC)NC(=O)[C@H](CCCNC(=N)N)NC(=O)CNC(=O)CNC(=O)[C@H](Cc2ccccc2)NC(=O)[C@@H](NC(=O)[C@H](CO)NC(=O)[C@H](CO)NC(=O)[C@H](CCCNC(=N)N)NC(=O)[C@H](CCCNC(=N)N)NC(=O)[C@H](CC(C)C)NC(=O)[C@H](CO)NC(=O)CCOCCOCCOCCOCCNC(=O)[C@H](CCCCNC(=O)CO[C@@H]2O[C@H](CO)[C@@H](O[C@@H]3O[C@H](CO)[C@@H](O[C@@H]4O[C@H](CO[C@H]5O[C@H](CO)[C@@H](O)[C@H](O)[C@@H]5O[C@@H]5O[C@H](CO)[C@@H](O[C@@H]6O[C@H](CO[C@]7(C(=O)O)C[C@H](O)[C@@H](NC(C)=O)[C@H]([C@H](O)[C@H](O)CO)O7)[C@H](O)[C@H](O)[C@H]6O)[C@H](O)[C@H]5NC(C)=O)[C@@H](O)[C@H](O[C@H]5O[C@H](CO)[C@@H](O)[C@H](O)[C@@H]5O[C@@H]5O[C@H](CO)[C@@H](O[C@@H]6O[C@H](CO[C@]7(C(=O)O)C[C@H](O)[C@@H](NC(C)=O)[C@H]([C@H](O)[C@H](O)CO)O7)[C@H](O)[C@H](O)[C@H]6O)[C@H](O)[C@H]5NC(C)=O)[C@@H]4O)[C@H](O)[C@H]3NC(C)=O)[C@H](O)[C@H]2NC(C)=O)NC(=O)CO[C@@H]2O[C@H](CO)[C@@H](O[C@@H]3O[C@H](CO)[C@@H](O[C@@H]4O[C@H](CO[C@H]5O[C@H](CO)[C@@H](O)[C@H](O)[C@@H]5O[C@@H]5O[C@H](CO)[C@@H](O[C@@H]6O[C@H](CO[C@]7(C(=O)O)C[C@H](O)[C@@H](NC(C)=O)[C@H]([C@H](O)[C@H](O)CO)O7)[C@H](O)[C@H](O)[C@H]6O)[C@H](O)[C@H]5NC(C)=O)[C@@H](O)[C@H](O[C@H]5O[C@H](CO)[C@@H](O)[C@H](O)[C@@H]5O[C@@H]5O[C@H](CO)[C@@H](O[C@@H]6O[C@H](CO[C@]7(C(=O)O)C[C@H](O)[C@@H](NC(C)=O)[C@H]([C@H](O)[C@H](O)CO)O7)[C@H](O)[C@H](O)[C@H]6O)[C@H](O)[C@H]5NC(C)=O)[C@@H]4O)[C@H](O)[C@H]3NC(C)=O)[C@H](O)[C@H]2NC(C)=O)CSSC[C@@H](C(=O)N[C@@H](CC(N)=O)C(=O)N[C@@H](CO)C(=O)N[C@@H](Cc2ccccc2)C(=O)N[C@@H](CCCNC(=N)N)C(=O)N[C@@H](Cc2ccc(O)cc2)C(=O)O)NC(=O)CNC(=O)[C@H](CC(C)C)NC(=O)CNC(=O)[C@H](CO)NC(=O)[C@H](CCC(N)=O)NC(=O)[C@H](C)NC(=O)CNC1=O [Compound 2-35, SG-(SG-)Lys-PEG(3)-hANP(1-28)]
- EC50: 0.31 nM
